The values that follow come from patent publication US7601737B2, “Isotopically substituted proton pump inhibitors” (priority 2005, dated 2009).

Series [1] relates to human cryopreserved hepatocytes.
Protocol: (§3) Following the evaluation of the metabolic clearance of the compounds according to the invention via P450 enzymes, the formation kinetics of the main metabolite identified in humans, i.e. M2 (5-(difluoromethoxy)-2-[[(3-methoxy-4-sulfate-2-pyridyl)-methyl]sulfinyl]-1H-benzimidazole) was determined. Because the generation of M2 involves the oxidation of the 4-methoxy-pyridyl group by CYP2C19 and subsequent conjugation with 3′-phosphoadenosine-5′-phosphosulfate (PAPS) by an unidentified sulphotransferase, human cryopreserved hepatocytes were used since both phase I and phase II enzymes are functional in this in vitro system.
(§4) M2 formation rate under these conditions was linear up to 60 min. The M2 formation rate was determined at nine different compound concentrations (0, 0.5, 1.0, 2.5, 5.0, 10.0, 25.0, 50.0 and 100 μMol/L) incubated in duplicate for 60 min at 37° C. M2 was quantified using LC-MS/MS. M2 isolated from human urine was used as an external standard. The concentration to reach the half-maximal formation rate (KM-value) and the maximal formation rate (Vmax) were obtained by non-linear regression analysis using the Michaelis-Menten equation. The intrinsic clearance (Clint) was obtained dividing Vmax over KM.
The nature of series [2]: in vitro. The following applies: human, hepatocytes.
Protocol: as §3, §4
A short description of series [3]: Metabolisation in liver microsomes (rat). It counts as in vitro ADME. As to the method: (§1) Pantoprazole or examples 1 or 2 (10 μM each) were incubated with liver microsomes (source: all from GenTest except Mini Pig from TEBU),incubation in 1 mg/ml protein, 100 mM Tris-HCl, pH 7.4, 1 mM NADPH2). Reaction was terminated after 90 minutes by liquid nitrogen, the parent compound was detected by HPLC (10 mM KH2PO4, pH 7.4, acetonitril gradient 20-44%).
(Liver microsomes are vesicles of endoplasmic reticulum, rich in cytochrome P450 enzymes.)

Series [4] is described as follows: Metabolisation in liver microsomes (dog). Type of series: in vitro ADME. As to the method:
as §1

Series [5] in a line: Metabolisation in liver microsomes (human). Type of series: in vitro ADME. As to the method:
as §1

Series [6] is described as follows: Metabolisation in liver microsomes (mouse). It counts as in vitro ADME. As to the method:
as §1

Series [7] can be described thus: Metabolisation in liver microsomes (guinea pig). The following applies: Guinee pig liver microsomes. Type of series: in vitro ADME. As to the method:
as §1

Series [8] can be described thus: Metabolisation in liver microsomes (monkey). It counts as in vitro ADME. As to the method:
as §1

A short description of series [9]: Metabolisation in liver microsomes (mini pig). Type of series: in vitro ADME. As to the method: as §1
Series [10] in a line: in vitro. The following applies: human, hepatocytes. From the text: (§2) 5-hydroxy-omeprazole was quantified using LC-MS/MS.
This is another data set of the same source.

For series [11], the system named is human cryopreserved hepatocytes. Nature of the series: in vitro. The following applies: for % Σ Clint rac. Omeprazole: hepatocytes.
Text: as §2

The mark [12] stands for this setting: Table 2, relative to rac. pantoprazole.
The mark [13] stands for this setting: Table 3, pooled human hepatocytes, M2 formation, Vmax over KM.
Setting [14] is: Table 3, relative to rac. pantoprazole.

Read-outs that look alike come from different tables or passages of the source.

By hepatocyte CLint is commonly meant the capacity of the preparation to metabolise the compound, expressed as a volume cleared per time. A high value points to rapid turnover. For `COc1ccnc(C[S+]([O-])c2nc3ccc(OC(F)F)cc3[nH]2)c1OC` (racemic) [rac. pantoprazole Na 1.5 H2O, 5-difluoromethoxy-2-[(3,4-dimethoxy-2-pyridinyl)methylsulphinyl]-1H-benzimidazole, reference compound], in series [1] (human, hepatocytes), the “% Σ Clint rac. Pantoprazole” value is 100%, the “% Σ Clint rac. pantoprazole” value is recorded as 100% and the “Intrinsic clearance (Clint)” value turned out to be 27.9 μl/min/10^6 cells. The compound further gave a hepatocyte CLint in “in vitro [2]” of 27.9 µL/min/1e6 cells.

Turning to `[2H]C([2H])([2H])Oc1ccnc(C[S+]([O-])c2nc3cc(OC(F)F)ccc3[nH]2)c1OC` (racemic) [Example 1, (R/S)-5-Difluoromethoxy-2-[(3-methoxy-4-trideuteriomethoxy-2-pyridinyl)methylsulfinyl]-1H-benzimidazole], the “Percent of compound metabolized” value came out at 35% in [3] (10 μM, 90 minutes incubation); 12% in series [4] (10 μM, 90 minutes incubation); 14% in series [5] (10 μM, 90 minutes incubation); 36% in [6] (10 μM, 90 minutes incubation); 59% in [7] (10 μM, 90 minutes incubation); 47% in [8] (10 μM, 90 minutes incubation). Moreover, the “Percent of compound metabolized” value in series [9] (10 μM, 90 minutes incubation) was 19%. Also, the “Ratio of percent metabolized, Example/Pantoprazole” value was 0.57 in series [3] (90 minutes); 0.60 in series [4] (90 minutes); 0.50 in series [5] (90 minutes); 0.58 in series [6] (90 minutes); 0.75 in [7] (90 minutes); 0.64 in series [8] (90 minutes). The “Ratio of percent metabolized, Example/Pantoprazole” value in [9] (90 minutes) came to 0.73.

With `[2H]C([2H])([2H])Oc1c(C)cnc(C[S+]([O-])c2nc3cc(OC)ccc3[nH]2)c1C` (racemic) [Example 48, rac-5-Methoxy-2-[(3,5-dimethyl-4-trideuteriomethoxy-2-pyridinyl)methylsulfinyl]-1H-benzimidazole], the hepatocyte CLint in “in vitro [10]” came out at 1.4 µL/min/1e6 cells. In [11] (human, 60 min), the “5-hydroxy-omeprazole formation rate, reduction compared to non-deuterated omeprazole” value is given as “about 1.5 fold” and the “Reduction in the 5-hydroxy-omeprazole formation rate” value is reported as “Reduction in the 5-hydroxy-omeprazole formation rate was observed”. Also, the “% Σ Clint rac. Omeprazole” value in [11] (human) amounted to 69%.

In the case of `O.O.O.[2H]C([2H])([2H])Oc1ccnc(C[S@@+]([O-])c2nc3cc(OC(F)F)ccc3[nH]2)c1OC.[Na]` [Example 30, (R)-5-Difluoromethoxy-2-[(3-methoxy-4-trideuteriomethoxy-2-pyridinyl)methylsulfinyl]-1H-benzimidazole sodium salt trihydrate], the “% Σ Clint (R)-pantoprazole” value in [1] (Table 2, relative to (R)-pantoprazole) was 21%.

In the series “in vitro [10]”, `COc1ccc2nc([S@@+]([O-])Cc3ncc(C)c(OC)c3C)[nH]c2c1` [(S)-omeprazole sodium, (S)-5-methoxy-2-[(4-methoxy-3,5-dimethyl-2-pyridinyl)methylsulphinyl]-1H-benzimidazole, reference compound] had a hepatocyte CLint of 0.7 µL/min/1e6 cells. Further, the “% Σ Clint rac. Omeprazole” value in series [11] (human) came out at 37%.

As to `[2H]C([2H])([2H])Oc1ccc2[nH]c([S+]([O-])Cc3ncc(C)c(OC([2H])([2H])[2H])c3C)nc2c1` (racemic) [Example 47, rac-5-Trideuteriomethoxy-2-[(3,5-dimethyl-4-trideuteriomethoxy-2-pyridinyl)methylsulfinyl]-1H-benzimidazole], the hepatocyte CLint in “in vitro [10]” amounted to 1.4 µL/min/1e6 cells. Besides, the “5-hydroxy-omeprazole formation rate, reduction compared to non-deuterated omeprazole” value in series [11] (human, 60 min) is recorded as “about 1.5 fold”. Further, the “% Σ Clint rac. Omeprazole” value in series [11] (human) is 69%.

As for `O.[2H]C([2H])Oc1ccnc(C[S+]([O-])c2nc3cc(OC(F)F)ccc3[nH]2)c1OC.[Na]` (racemic) [Example 24, rac-5-Difluoromethoxy-2-[(3-methoxy-4-dideuteriomethoxy-2-pyridinyl)methylsulfinyl]-1H-benzimidazole sodium salt mono hydrate], the “% Σ Clint rac. pantoprazole” value in [1] (setting [12]) is 48%. In addition, in [1] (setting [13]), the “Intrinsic clearance (Clint)” value is 13.5 μl/min/10^6 cells. In series [1] (setting [14]), the “% Σ Clint rac. Pantoprazole” value stood at 48%. Further, the hepatocyte CLint in “in vitro [2]” came to 13.5 µL/min/1e6 cells.

As to `COc1ccnc(C[S@+]([O-])c2nc3cc(OC(F)F)ccc3[n-]2)c1OC.COc1ccnc(C[S@+]([O-])c2nc3cc(OC(F)F)ccc3[n-]2)c1OC.O.O.O.[Na+].[Na+]` [(S)-pantoprazole Na 1.5 H2O, reference compound], in series [1] (human, hepatocytes), the “% Σ Clint (S)-pantoprazole” value stood at 100% and the “Intrinsic clearance (Clint)” value amounted to 16.1 μl/min/10^6 cells.

Take `[2H]C([2H])([2H])Oc1ccnc(C[S@+]([O-])c2nc3cc(OC(F)F)ccc3[nH]2)c1OC.[Na]` [Example 36, (S)-5-Difluoromethoxy-2-[(3-methoxy-4-trideuteriomethoxy-2-pyridinyl)methylsulfinyl]-1H-benzimidazole sodium salt]: the “% Σ Clint (S)-pantoprazole” value in series [1] (Table 3, relative to (S)-pantoprazole) was 21%. Moreover, the intrinsic clearance (hepatocyte CLint) in the series “in vitro [2]” is 3.4 µL/min/1e6 cells.

For the compound `[2H]C([2H])([2H])Oc1ccc2[nH]c([S@@+]([O-])Cc3ncc(C)c(OC([2H])([2H])[2H])c3C)nc2c1.[Na]` [Example 49, (S)-5-Trideuteriomethoxy-2-[(3,5-dimethyl-4-trideuteriomethoxy-2-pyridinyl)methylsulfinyl]-1H-benzimidazole sodium salt], the hepatocyte CLint in the series “in vitro [10]” amounted to 0.8 µL/min/1e6 cells. In [11], the “Change of intrinsic clearance (Clint) of 5-hydroxy-omeprazole” value was “did not alter the intrinsic clearance”. In [11] (human), the “% Σ Clint rac. Omeprazole” value amounted to 40%.

Take `COc1ccnc(C[S@@+]([O-])c2nc3cc(OC(F)F)ccc3[n-]2)c1OC.COc1ccnc(C[S@@+]([O-])c2nc3cc(OC(F)F)ccc3[n-]2)c1OC.O.O.O.[Na+].[Na+]` [(R)-pantoprazole Na 1.5 H2O, reference compound]: in series [1] (human, hepatocytes), the “% Σ Clint (R)-pantoprazole” value was 100% and the “Intrinsic clearance (Clint)” value turned out to be 25.7 μl/min/10^6 cells.

Regarding `[2H]C([2H])([2H])Oc1ccnc(C[S@+]([O-])c2nc3cc(OC(F)F)ccc3[nH]2)c1OC` [Example 5, Sodium (S)-{[5-(difluoromethoxy)]-2-[(3-methoxy-4-trideuteriomethoxy-2-pyridinyl)methylsulphinyl]-1H-benzimidazolide} hydrate], the “% Σ Clint (S)-pantoprazole” value in [1] (Table 2, relative to (S)-pantoprazole) was 21%.

On to `[2H]C([2H])([2H])Oc1c(OC)ccnc1C[S+]([O-])c1nc2cc(OC(F)F)ccc2[nH]1` (racemic) [Example 22, rac-5-Difluoromethoxy-2-[(4-methoxy-3-trideuteriomethoxy-2-pyridinyl)methylsulfinyl]-1H-benzimidazole], for which the “Substrate concentrations at which formation of M2 appeared to be inhibited” value in series [1] (human, 60 min) is “above 100 μM”. For the same compound, in [1] (human, hepatocytes), the “% Σ Clint rac. Pantoprazole” value was determined as 79%, the “% Σ Clint rac. pantoprazole” value was 79% and the “Intrinsic clearance (Clint)” value was 22.0 μl/min/10^6 cells. Besides, the intrinsic metabolic clearance (hepatocyte CLint) in the series “in vitro [2]” came to 22 µL/min/1e6 cells.

For the compound `O.[2H]COc1ccnc(C[S+]([O-])c2nc3cc(OC(F)F)ccc3[nH]2)c1OC.[Na]` (racemic) [Example 25, rac-5-Difluoromethoxy-2-[(3-methoxy-4-monodeuteriomethoxy-2-pyridinyl)methylsulfinyl]-1H-benzimidazole sodium salt mono hydrate], the “% Σ Clint rac. pantoprazole” value in series [1] (setting [12]) is 63%. In addition, the “Intrinsic clearance (Clint)” value in series [1] (setting [13]) amounted to 17.7 μl/min/10^6 cells. Also, the “% Σ Clint rac. Pantoprazole” value in [1] (setting [14]) is listed as 63%. Moreover, the hepatocyte CLint in “in vitro [2]” was found to be 17.7 µL/min/1e6 cells.

For “Sodium (R/S)-{[5-(difluoromethoxy)]-2-[(3-methoxy-4-trideuteriomethoxy-2-pyridinyl)methylsulphinyl]-1H-benzimidazolide} hydrate [Example 6]”, the “Intrinsic clearance (Clint)” value in series [1] (Table 2, pooled human hepatocytes, M2 formation, Vmax over KM) was found to be 5.1 μl/min/10^6 cells. Further, the “% Σ Clint rac. pantoprazole” value in [1] (setting [12]) is 20%. For the same compound, the “Effect of increasing number of [2H] atoms in the 4-methoxy-pyridyl position on M2 formation rates” value in [1] (series [1H], [2H1], [2H2], [2H3]) is “decreased M2 formation rates”.

On to `[2H]C([2H])([2H])Oc1ccnc(C[S@@+]([O-])c2nc3cc(OC(F)F)ccc3[nH]2)c1OC.[Na]` [Example 37, (R)-5-Difluoromethoxy-2-[(3-methoxy-4-trideuteriomethoxy-2-pyridinyl)methylsulfinyl]-1H-benzimidazole sodium salt], for which the “% Σ Clint (R)-pantoprazole” value in series [1] (Table 3, relative to (R)-pantoprazole) was 21%. In addition, the hepatocyte CLint in “in vitro [2]” worked out at 5.5 µL/min/1e6 cells.

`O.[2H]C([2H])([2H])Oc1ccnc(C[S+]([O-])c2nc3cc(OC(F)F)ccc3[nH]2)c1OC.[Na]` (racemic) [Example 32, rac-5-Difluoromethoxy-2-[(3-methoxy-4-trideuteriomethoxy-2-pyridinyl)methylsulfinyl]-1H-benzimidazole sodium salt mono hydrate]: the “% Σ Clint rac. Pantoprazole” value in [1] (setting [14]) came out at 18%. Also, the hepatocyte CLint in the series “in vitro [2]” is 5.1 µL/min/1e6 cells.

With `[2H]C([2H])([2H])Oc1ccc2[nH]c([S+]([O-])Cc3ncc(C)c(OC)c3C)nc2c1` (racemic) [Example 46, rac-5-Trideuteriomethoxy-2-[(4-methoxy-3,5-dimethyl-2-pyridinyl)methylsulfinyl]-1H-benzimidazole], the hepatocyte CLint in the series “in vitro [10]” stood at 2.1 µL/min/1e6 cells. Also, the “Reduction in the 5-hydroxy-omeprazole formation rate” value in [11] is reported as “not found”. For the same compound, in [11] (human), the “% Σ Clint rac. Omeprazole” value came to 107%.
